Values quoted from earlier work, collected in US20240415880A1, “Treatment of Breast and Other Cancers Using Zinc Chloride Instead of Radiation” (priority 2023, published 2024).

Key:
advanced melanomas = settings: 103 consecutive advanced melanomas; zinc chloride combined with surgery
[1] = system: locally advanced breast cancer tumors; settings: case presentations
[2] = system: cancers of the mouth, accessory nasal sinuses, larynx, parotid and other salivary glands, anal region, vulva and accessible sarcomas

[Cl-].[Cl-].[Zn+2] [zinc chloride, Zinc chloride]
improvement in cure rates over conventional surgery of melanomas (advanced melanomas): significant and statistical (p=0.003) improvement
healing of locally advanced breast cancer tumors [1]: remarkable healing
treatment outcome of cancers [2]: successfully treated
